Where two headings read alike, the source gives them in different places.
How the values were obtained:
wild-type HIV-1 protease = wild-type HIV-1 protease (Human immunodeficiency virus type 1 group M subtype B, UniProt P04585); experiment: Assay for inhibition of microbial expressed HIV protease; assay type: biochemical; conditions: wild-type HIV-1 protease expressed in E. coli, peptide substrate, pH 5.5; read-out: Enzyme Inhibition - IC50
Procedure: Assay for Inhibition of Microbial Expressed HIV Protease
Inhibition studies of the reaction of the protease (which was expressed in Eschericia coli) with a peptide substrate [Val-Ser-Gln-Asn-(betanapthyl)Ala-Pro-Ile-Val]. The inhibitor is first preincubated with the enzyme in assay buffer (50 mM sodium acetate, pH 5.5, 100 mM NaCl, and 0.1% BSA) for 30 minutes at room temperature. Substrate is added to 440 micromolar in a total volume of 80 microliters containing 5 picomolar HIV-1 protease, and the reaction is incubated for 1 hour at 30° C. The reaction is quenched by addition of 120 microliters of 10% phosphoric acid, and product formation is determined after separation of product and substrate on a Vydac C18 column connected to an Alliance high performance liquid chromatography system (Waters Corporation). The extent of inhibition of the reaction is determined from the peak area of the products.

[1] = system: acute HIV infection of T-lymphoid cells; experiment: Assay for inhibition of HIV replication (spread assay); assay type: cell-based, HIV-1
Procedure: • Assay for Inhibition of HIV Replication
Assays for the inhibition of acute HIV infection of T-lymphoid cells were conducted in accordance with Vacca, J. P. et al., Proc. Natl. Acad. Sci. USA 1994, 91: 4096.

[2] = Human immunodeficiency virus 1, T-lymphoid, read-out: Spread - IC95
[3] = inhibition of HIV-1 replication, 10% FBS, read-out: Spread - IC95

For `CC(C)CCN([C@@H](CCCCNC(=O)[C@@H](N)C(c1ccccc1)c1ccccc1)C(C)O)S(=O)(=O)c1ccc(N)cc1` (mixture of isomers) [Example A1, (2S)-2-amino-N-{5-[[(4-aminophenyl)sulfonyl]-(3-methylbutyl)amino]-6-hydroxyheptyl}-3,3-diphenylpropanamide], which IC50 (wild-type HIV-1 protease) is on record?
The IC50 was 0.43 nM.

And the IC95 [1, 2]?
The IC95 was 140 nM.

Which results are given for `CCC(CCC[C@@H](CO)N(CCC(C)C)S(=O)(=O)c1ccc(N)cc1)NC(=O)[C@H](C(c1ccccc1)c1ccccc1)N(C)C(=O)OC` (mixture of isomers) [Example F12, N{(5S)-5-[[(4-aminophenyl)sulfonyl](3-methylbutyl)amino]-1-ethyl-6-hydroxyhexyl}-Nα-(methoxycarbonyl)-Nα-methyl-β-phenyl-L-phenylalaninamide]?
IC50 (wild-type HIV-1 protease): 2.11 nM; IC95 [1, 2]: 325 nM

For `COC(=O)N[C@H](C(=O)N[C@H](C)CCC[C@@H](CO)N(CCC(C)C)S(=O)(=O)c1ccc(N)cc1)C(c1ccccc1)c1ccccc1` (single isomer, unassigned) [D1(S)], which IC50 (wild-type HIV-1 protease) is on record?
Its IC50 is 0.008 nM.

What about the IC95 [1, 2] of the same molecule?
Its IC95 is 7 nM.

Which IC50 (wild-type HIV-1 protease) does the source give for `COC(=O)N[C@H](C(=O)NC(CO)CCCC(CO)N(CCC(C)C)S(=O)(=O)c1ccc(N)cc1)C(c1ccccc1)c1ccccc1` (single isomer, unassigned) [Example M1-7A, N-[(1R or 1S,5R or 5S)-5-[[(4-aminophenyl)sulfonyl](3-methylbutyl)amino]-6-hydroxy-1-(hydroxymethyl)hexyl]-Nα-(methoxycarbonyl)-β-phenyl-L-phenylalaninamide] here?
Its IC50 is 0.349 nM.

What about the IC95 [1, 2] of the same molecule?
The IC95 was 302 nM.

How did the IC50 (wild-type HIV-1 protease) turn out when `COC(=O)N[C@H](C(=O)NC(CO)CCCC(CO)N(CCC(C)C)S(=O)(=O)c1ccc(N)cc1)C(c1ccccc1)c1ccccc1` (single isomer, unassigned) [Example M1-7B, N-[(1R or 1S, 5R or 5S)-5-[[(4-aminophenyl)sulfonyl](3-methylbutyl)amino]-6-hydroxy-1-(hydroxymethyl)hexyl]-Nα-(methoxycarbonyl)-β-phenyl-L-phenylalaninamide] was run?
Its IC50 is 0.013 nM.

What about the IC95 [1, 3] of the same molecule?
Its IC95 is 230 nM.

For `COC(=O)N[C@H](C(=O)N[C@@H](C)CCC[C@@H](CO)N(CCC(C)C)S(=O)(=O)c1ccc(N)cc1)C(c1ccccc1)c1ccccc1` [D1(R), N-{(1S,5S)-5-[[(4-aminohenyl)sulfonyl](3-methylbutyl)amino]-6-hydroxy-1-methylhexyl}-Nα-(methoxycarbonyl)-β-phenyl-L-phenylalaninamide], which IC50 (wild-type HIV-1 protease) is on record?
The IC50 was 0.386 nM.

What about the IC95 [1, 3] of the same molecule?
Its IC95 is 98 nM.

What does the source list for `COC(=O)N[C@H](C(=O)NCCCC[C@@H](CN)N(CCC(C)C)S(=O)(=O)c1ccc(N)cc1)C(c1ccccc1)c1ccccc1` [Example A2, Methyl [(1S)-2-({6-amino-5-[[(4-aminophenyl)sulfonyl](3-methylbutyl)amino]-hexyl)amino)-1-(diphenylmethyl)-2-oxoethyl]carbamate]?
IC50 (wild-type HIV-1 protease): 5 nM; IC95 [1, 2]: 252 nM

Which IC50 (wild-type HIV-1 protease) does the source give for `Cc1ccc(S(=O)(=O)N(CCC(C)C)[C@H](CO)CC(C)CCNC(=O)[C@@H](N)C(c2ccccc2)c2ccccc2)cc1` (stereo partly drawn) [Example B1, (2S)-2-amino-N-((5S)-6-hydroxy-3-methyl-5-{(3-methylbutyl)[(4-methylphenyl)-sulfonyl]amino}hexyl)-3,3-diphenylpropanamide] here?
Its IC50 is 0.51 nM.

What about the IC95 [1, 2] of the same molecule?
The IC95 was 500 nM.

Which IC50 (wild-type HIV-1 protease) does the source give for `COC(=O)N[C@H](C(=O)NCCC(C)C[C@@H](CO)N(CCC(C)C)S(=O)(=O)c1ccc(C)cc1)C(c1ccccc1)c1ccccc1` (stereo partly shown) [Example B2] here?
Its IC50 is 0.52 nM.

What about the IC95 [1, 3] of the same molecule?
Its IC95 is 368 nM.

Which IC50 (wild-type HIV-1 protease) does the source give for `CC[C@@H](CCC[C@@H](CO)N(CCC(C)C)S(=O)(=O)c1ccc(N)cc1)NC(=O)[C@@H](NC(=O)OC)C(c1ccccc1)c1ccccc1` [Example D2] here?
Its IC50 is 0.016 nM.

And the IC95 ([1]; Human immunodeficiency virus 1, T-lymphoid, read-out: Spread - IC95 (nM))?
The IC95 was 10 nM.

Which results are given for `CC[C@@H](CCC[C@@H](CO)N(CCC(C)C)S(=O)(=O)c1ccc(N)c(F)c1)NC(=O)[C@@H](NC(=O)OC)C(c1ccccc1)c1ccccc1` [Example D3, N-{(1S,5S)-5-[[(4-amino-3-fluorophenyl)sulfonyl](3-methylbutyl)amino]-1-ethyl-6-hydroxyhexyl}-Nα-(methoxycarbonyl)-b-phenyl-L-phenylalaninamide]?
IC50 (wild-type HIV-1 protease): 0.054 nM; IC95 [1, 2]: 12 nM

With `COC(=O)N[C@@H](Cc1ccccc1Cl)C(=O)N[C@@H](C)CCC[C@@H](CN)N(CCC(C)C)S(=O)(=O)c1ccc(N)cc1` [Example D4, N-{(1S,5S)-6-amino-5-[[(4-aminophenyl)sulfonyl](3-methylbutyl)amino]-1-methylhexyl}-2-chloro-Nα-(methoxycarbonyl)-L-phenylalaninamide] as the molecule, how does the IC50 (wild-type HIV-1 protease) read?
Its IC50 is > 3 nM.

And the IC95 [1, 2]?
The IC95 was 270 nM.

With `COC(=O)N[C@H](C(=O)N[C@@H](C)CCC[C@@H](CO)N(CCC(C)C)S(=O)(=O)c1ccc2ncsc2c1)C(c1ccccc1)c1ccccc1` [Example D5, N-{(1S,5S)-5-[(1,3-benzothiazol-6-ylsulfonyl)(3-methylbutyl)amino]-6-hydroxy-1-methylhexyl}-Nα-(methoxycarbonyl)-β-phenyl-L-phenylalaninamide] as the molecule, how does the IC50 (wild-type HIV-1 protease) read?
The IC50 was 0.042 nM.

What about the IC95 [1, 2] of the same molecule?
Its IC95 is 9 nM.

Which IC50 (wild-type HIV-1 protease) does the source give for `CCC[C@@H](CCC[C@@H](CO)N(CCC(C)C)S(=O)(=O)c1ccc(N)cc1)NC(=O)[C@@H](NC(=O)OC)C(c1ccccc1)c1ccccc1` [Example D6, N-{(1S,5S)-5-[[(4-aminophenyl)sulfonyl](3-methylbutyl)amino]-6-hydroxy-1-propylhexyl}-Nα-(methoxycarbonyl)-β-phenyl-L-phenylalaninamide] here?
The IC50 was 0.106 nM.

What about the IC95 [1, 2] of the same molecule?
The IC95 was 56 nM.

`COC(=O)N[C@@H](Cc1ccccc1Cl)C(=O)N[C@@H](C)CCC[C@@H](CO)N(CCC(C)C)S(=O)(=O)c1ccc(N)cc1` [Example D7, N-{(1S,5S)-5-[[(4-aminophenyl)sulfonyl](3-methylbutyl)amino]-6-hydroxy-1-methylhexyl}-2-chloro-Nα-(methoxycarbonyl)-L-phenylalaninamide] was tested. Which IC50 (wild-type HIV-1 protease) did it give?
Its IC50 is 0.064 nM.

And the IC95 [1, 2]?
The IC95 was 19 nM.

Which IC50 (wild-type HIV-1 protease) does the source give for `COC(=O)N[C@@H](Cc1ccccc1Cl)C(=O)N[C@@H](C)CCC[C@@H](CO)N(CC(C)C)S(=O)(=O)c1ccc(N)cc1` [Example D8, N-{(1S,5S)-5-[[(4-aminophenyl)sulfonyl](isobutyl)amino]-6-hydroxy-1-methylhexyl}-2-chloro-Nα-(methoxycarbonyl)-L-phenylalaninamide] here?
Its IC50 is 0.327 nM.

What about the IC95 [1, 2] of the same molecule?
Its IC95 is 46 nM.

What does the source list for `COC(=O)N[C@H](C(=O)N[C@@H](C)CCC[C@@H](CO)N(CC(C)C)S(=O)(=O)c1ccc(N)cc1)C(c1ccccc1)c1ccccc1` [Example D9, N-{(1S,5S)-5-[[(4-aminophenyl)sulfonyl](isobutyl)amino]-6-hydroxy-1-methylhexyl}-Nα-(methoxycarbonyl)-β-phenyl-L-phenylalaninamide]?
IC50 (wild-type HIV-1 protease): 0.035 nM; IC95 [1, 2]: 8 nM

Which results are given for `COC(=O)N[C@H](C(=O)N[C@H](CCC[C@@H](CO)N(CCC(C)C)S(=O)(=O)c1ccc(N)cc1)C(C)C)C(c1ccccc1)c1ccccc1` [Example D10, N-{(1R,5S)-5-[[(4-aminophenyl)sulfonyl](3-methylbutyl)amino]-6-hydroxy-1-isopropylhexyl}-Nα-(methoxycarbonyl)-β-phenyl-L-phenylalaninamide]?
IC50 (wild-type HIV-1 protease): 0.099 nM; IC95 [1, 2]: 37 nM

With `COC(=O)N[C@H](C(=O)N[C@@H](C)CCC[C@@H](CO)N(C(C)C)S(=O)(=O)c1ccc(N)cc1)C(c1ccccc1)c1ccccc1` [Example F1, N-{(1S,5S)-5-[[(4-aminophenyl)sulfonyl](isopropyl)amino]-6-hydroxy-1-methylhexyl}-Nα-(methoxycarbonyl)-β-phenyl-L-phenylalaninamide] as the molecule, how does the IC95 [1, 2] read?
The IC95 was 32 nM.

Reference: US20100093811A1 (priority 2007, published 2010)
